Bridge positions count the residues as written; N and C are the ends. Square brackets hold non-standard residues; d marks the D form. Peptide text beside a SMILES is read from it. * marks the point of attachment. ξ: configuration not given here. Phe(3-CF3) = N[C@@H](Cc1cccc(C(F)(F)F)c1)C(=O)O; Phe(4-COOH) = N[C@@H](Cc1ccc(C(=O)O)cc1)C(=O)O; Bip = N[C@@H](Cc1ccc(-c2ccccc2)cc1)C(=O)O; Phe(3-Me) = Cc1cccc(C[C@H](N)C(=O)O)c1; NH(CH2)12COOH = O=C(O)CCCCCCCCCCCCN*; His(π-Me) = Cn1cncc1C[C@H](N)C(=O)O; Val(3-OH) = CC(C)(O)[C@H](N)C(=O)O; hArg = N=C(N)NCCCC[C@H](N)C(=O)O; 4Pal = N[C@@H](Cc1ccncc1)C(=O)O; 3Thi = N[C@@H](Cc1ccsc1)C(=O)O; Cha = N[C@@H](CC1CCCCC1)C(=O)O; Cit = NC(=O)NCCC[C@H](N)C(=O)O; Thr(3ξ) = CC(O)[C@H](N)C(=O)O; PEG4 = NCCOCCOCCOCCOCCC(=O)O; 12Ado = NCCCCCCCCCCCC(=O)O; Carboxymethyl = O=C(O)C*; Nle = CCCC[C@H](N)C(=O)O; Orn = NCCC[C@H](N)C(=O)O; Aun = NCCCCCCCCCCC(=O)O; Dab = NCC[C@H](N)C(=O)O; Dap = NC[C@H](N)C(=O)O; AEEA = NCCOCCOCC(=O)O
Target: T1, PD-1/PD-L1 interaction (PE-labeled human PD-L1-Ig binding to Jurkat cell line over-expressing human PD-1) (Homo sapiens, UniProt Q15116)
T1 construct: expressed in transfected cells; host or cells: Jurkat
Experiment: Jurkat-PD-1 Cell Binding High-Content Screening Assay (CBA)
Assay type: cell-based
Details: Jurkat cell line over-expressing human PD-1; PE-labeled PD-L1-Ig 20 nM final; read-out: Jurkat hPD1-PDL1 IC50
Summary of the method: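 Jurkat cells stably over-expressing human PD-1 were seeded in DMEM with 10% fetal calf serum and pre-incubated with compound for 2 h at 37° C. PE-labeled human PD-L1-Ig was then added at 20 nM final for 1 hour, after which cells were fixed with paraformaldehyde, Hoechst-stained and imaged by high-content microscopy.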

T1 sequence (Q15116 25-288): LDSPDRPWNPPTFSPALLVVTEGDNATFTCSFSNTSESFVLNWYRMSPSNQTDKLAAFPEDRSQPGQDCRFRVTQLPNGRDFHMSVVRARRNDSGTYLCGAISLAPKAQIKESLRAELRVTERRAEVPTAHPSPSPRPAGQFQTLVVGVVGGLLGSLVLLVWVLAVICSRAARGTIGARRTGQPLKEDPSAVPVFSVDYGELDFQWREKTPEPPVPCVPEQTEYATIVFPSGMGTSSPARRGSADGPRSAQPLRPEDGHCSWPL

IC50 | Compound
0.0438 µM | Cc1cccc(C[C@@H]2NC(=O)[C@H](CC(=O)O)NC(=O)[C@H](Cc3ccc(OCC(=O)O)cc3)NC(=O)[C@H](Cc3ccc(OCC(=O)O)cc3)NC(=O)CSC[C@@H](C(=O)N[C@@H](CCN)C(=O)NCCCCCCCCCCC(=O)O)NC(=O)[C@H](CO)NC(=O)[C@H](C(C)C)NC(=O)[C@H](CC3CCCCC3)NC(=O)[C@H](CCN)NC(=O)[C@@H](CC(C)C)NC(=O)[C@H](CCCN)NC(=O)[C@H](Cc3ccc(OCC(=O)O)cc3)NC(=O)[C@H](Cc3ccc(-c4ccccc4)cc3)NC(=O)[C@H](C(C)C)NC2=O)c1 [Compound 2089] ({CH2CO}-Y(Carboxymethyl)Y(Carboxymethyl)D[Phe(3-Me)]V[Bip]Y(Carboxymethyl)[Orn][dL][Dab][Cha]VSC[Dab][Aun]-OH; thioether N-14)
0.0099 µM | Cc1cccc(C[C@@H]2NC(=O)[C@H](CC(=O)O)NC(=O)[C@H](Cc3ccc(OCC(=O)O)cc3)NC(=O)[C@H](CN)NC(=O)CSC[C@@H](C(=O)NCCCCCCCCCCC(=O)O)NC(=O)[C@H](CCCN)NC(=O)[C@H](C(C)C)NC(=O)[C@H](CC3CCCCC3)NC(=O)[C@H](CCN)NC(=O)[C@@H](CC(C)C)NC(=O)[C@H](CCCN)NC(=O)[C@H](Cc3ccc(O)cc3)NC(=O)[C@H](Cc3ccc(-c4ccccc4)cc3)NC(=O)[C@H](C(C)C)NC2=O)c1 [Compound 2694] ({CH2CO}-[Dap]Y(Carboxymethyl)D[Phe(3-Me)]V[Bip]Y[Orn][dL][Dab][Cha]V[Orn]C[Aun]-OH; thioether N-14)
0.0183 µM | Cc1cccc(C[C@@H]2NC(=O)[C@H](CC(=O)O)NC(=O)[C@H](Cc3ccc(OCC(=O)O)cc3)NC(=O)[C@H](CCN)NC(=O)CSC[C@@H](C(=O)N[C@H](CC(N)=O)C(=O)NCCOCCOCC(=O)NCCCCCCCCCCC(=O)O)NC(=O)[C@H](CCCN)NC(=O)[C@H](C(C)C)NC(=O)[C@H](CC3CCCCC3)NC(=O)[C@H](CCN)NC(=O)[C@@H](CC(C)C)NC(=O)[C@H](CCCN)NC(=O)[C@H](Cc3ccc(O)cc3)NC(=O)[C@H](Cc3ccc(-c4ccccc4)cc3)NC(=O)[C@H](C(C)C)NC2=O)c1 [Compound 3616] ({CH2CO}-[Dab]Y(Carboxymethyl)D[Phe(3-Me)]V[Bip]Y[Orn][dL][Dab][Cha]V[Orn]C[dN][AEEA][Aun]-OH; thioether N-14)
0.0186 µM | Cc1cccc(C[C@@H]2NC(=O)[C@H](CC(=O)O)NC(=O)[C@H](Cc3ccncc3)NC(=O)[C@H](Cc3ccc(OCC(=O)O)cc3)NC(=O)CSC[C@@H](C(=O)N[C@@H](CCN)C(=O)NCCCCCCCCCCC(=O)O)NC(=O)[C@H](CCCN)NC(=O)[C@H](C(C)C)NC(=O)[C@H](CC3CCCCC3)NC(=O)[C@H](CCN)NC(=O)[C@@H](CC(C)C)NC(=O)[C@H](CCCN)NC(=O)[C@H](Cc3ccc(O)cc3)NC(=O)[C@H](Cc3ccc(-c4ccccc4)cc3)NC(=O)[C@H](C(C)C)NC2=O)c1 [Compound 2710] ({CH2CO}-Y(Carboxymethyl)[4Pal]D[Phe(3-Me)]V[Bip]Y[Orn][dL][Dab][Cha]V[Orn]C[Dab][Aun]-OH; thioether N-14)
0.0155 µM | Cc1cccc(C[C@@H]2NC(=O)[C@H](CC(=O)O)NC(=O)[C@H](Cc3ccc(OCC(=O)O)cc3)NC(=O)[C@H](Cc3cncn3C)NC(=O)CSC[C@@H](C(=O)N[C@@H](CCN)C(=O)NCCCCCCCCCCC(=O)O)NC(=O)[C@H]([C@@H](C)O)NC(=O)[C@H](C(C)C)NC(=O)[C@H](CC3CCCCC3)NC(=O)[C@H](CCN)NC(=O)[C@@H](CC(C)C)NC(=O)[C@H](CCCN)NC(=O)[C@H](CCCNC(N)=O)NC(=O)[C@H](Cc3ccc(-c4ccccc4)cc3)NC(=O)[C@H](C(C)C)NC2=O)c1 [Compound 2034] ({CH2CO}-[His(π-Me)]Y(Carboxymethyl)D[Phe(3-Me)]V[Bip][Cit][Orn][dL][Dab][Cha]VTC[Dab][Aun]-OH; thioether N-14)
0.0084 µM | Cc1cccc(C[C@@H]2NC(=O)[C@H](CC(=O)O)NC(=O)[C@H](Cc3ccc(OCC(=O)O)cc3)NC(=O)[C@H](CCCNC(=N)N)NC(=O)CSC[C@@H](C(=O)N[C@@H](CCN)C(=O)NCCCCCCCCCCC(=O)O)NC(=O)[C@H](C(C)O)NC(=O)[C@H](C(C)C)NC(=O)[C@H](CC3CCCCC3)NC(=O)[C@H](CCN)NC(=O)[C@@H](CC(C)C)NC(=O)[C@H](CCCNC(N)=O)NC(=O)[C@H](Cc3ccc(OCC(=O)O)cc3)NC(=O)[C@H](Cc3ccc(-c4ccccc4)cc3)NC(=O)[C@H](Cc3ccc(OCC(=O)O)cc3)NC2=O)c1 (stereo partly drawn) [Compound 3486] ({CH2CO}-RY(Carboxymethyl)D[Phe(3-Me)]Y(Carboxymethyl)[Bip]Y(Carboxymethyl)[Cit][dL][Dab][Cha]V[Thr(3ξ)]C[Dab][Aun]-OH; thioether N-14)
0.0978 µM | Cc1cccc(C[C@@H]2NC(=O)[C@H](CC(=O)O)NC(=O)[C@H](Cc3ccc(OCC(=O)O)cc3)NC(=O)[C@H](CCCNC(=N)N)NC(=O)CSC[C@@H](C(=O)N[C@@H](CCN)C(=O)NCCCCCCCCCCC(=O)O)NC(=O)[C@H]([C@@H](C)O)NC(=O)[C@H](C(C)C)NC(=O)[C@H](CC3CCCCC3)NC(=O)[C@H](CCN)NC(=O)[C@@H](CC(C)C)NC(=O)[C@H](CCCN)NC(=O)[C@H](Cc3ccc(OCC(=O)O)cc3)NC(=O)[C@H](Cc3ccc(-c4ccccc4)cc3)NC(=O)[C@H](Cc3ccc(OCC(=O)O)cc3)NC2=O)c1 [Compound 2157] ({CH2CO}-RY(Carboxymethyl)D[Phe(3-Me)]Y(Carboxymethyl)[Bip]Y(Carboxymethyl)[Orn][dL][Dab][Cha]VTC[Dab][Aun]-OH; thioether N-14)

Further lines, the compound ahead of its results:

Compound | IC50
CCCC[C@@H]1NC(=O)CSC[C@@H](C(=O)N[C@@H](CCN)C(=O)NCCOCCOCCOCCOCCC(=O)NCCCCCCCCCCCCC(=O)O)NC(=O)[C@H](CO)NC(=O)[C@H](C(C)(C)O)NC(=O)[C@H](CC2CCCCC2)NC(=O)[C@H](CCN)NC(=O)[C@@H](CC(C)C)NC(=O)[C@H](CCCN)NC(=O)[C@H](Cc2ccc(C(=O)O)cc2)NC(=O)[C@H](Cc2ccc(-c3ccccc3)cc2)NC(=O)[C@H](Cc2ccc(C(=O)O)cc2)NC(=O)[C@H](Cc2cccc(C(F)(F)F)c2)NC(=O)[C@H](CC(=O)O)NC(=O)[C@H](Cc2ccc(OCC(=O)O)cc2)NC1=O [Compound 2911] ({CH2CO}-[Nle]Y(Carboxymethyl)D[Phe(3-CF3)][Phe(4-COOH)][Bip][Phe(4-COOH)][Orn][dL][Dab][Cha][Val(3-OH)]SC[Dab][PEG4]-{NH(CH2)12COOH}; thioether N-14) | 0.0349 µM
CC(C)C[C@H]1NC(=O)[C@H](CCCN)NC(=O)[C@H](C(C)C)NC(=O)[C@H](Cc2ccc(-c3ccccc3)cc2)NC(=O)[C@H](C(C)C)NC(=O)[C@H](Cc2c[nH]c3ccccc23)NC(=O)[C@H](CC(=O)O)NC(=O)[C@H](Cc2ccc(OCC(=O)O)cc2)NC(=O)[C@H](CCCCNC(=N)N)NC(=O)CSC[C@@H](C(=O)NCCOCCOCC(=O)N[C@@H](CCCN)C(=O)NCCCCCCCCCCCC(=O)O)NC(=O)[C@H](CO)NC(=O)[C@H](C(C)C)NC(=O)[C@H](CC2CCCCC2)NC(=O)[C@H](CCN)NC1=O [Compound 3153] ({CH2CO}-[hArg]Y(Carboxymethyl)DWV[Bip]V[Orn][dL][Dab][Cha]VSC[AEEA][Orn][12Ado]-OH; thioether N-14) | 0.012 µM
Cc1cccc(C[C@@H]2NC(=O)[C@H](CC(=O)O)NC(=O)[C@H](Cc3ccc(OCC(=O)O)cc3)NC(=O)[C@H](CN)NC(=O)CSC[C@@H](C(=O)N[C@@H](C)C(=O)N[C@@H](CCC(=O)O)C(=O)NCC(=O)NCCCCCCCCCCC(=O)O)NC(=O)[C@H]([C@@H](C)O)NC(=O)[C@H](C(C)C)NC(=O)[C@H](CC3CCCCC3)NC(=O)[C@H](CCN)NC(=O)[C@@H](CC(C)C)NC(=O)[C@H](CCCN)NC(=O)[C@H](CCC(=O)O)NC(=O)[C@H](Cc3ccc(-c4ccccc4)cc3)NC(=O)[C@H](C(C)C)NC2=O)c1 [Compound 1046] ({CH2CO}-[Dap]Y(Carboxymethyl)D[Phe(3-Me)]V[Bip]E[Orn][dL][Dab][Cha]VTCAEG[Aun]-OH; thioether N-14) | 0.0162 µM
Cc1cccc(C[C@@H]2NC(=O)[C@H](CC(=O)O)NC(=O)[C@H](Cc3ccc(O)cc3)NC(=O)[C@H](CC(N)=O)NC(=O)CSC[C@@H](C(=O)N[C@@H](CCN)C(=O)NCCCCCCCCCCC(=O)O)NC(=O)[C@H](CCC(N)=O)NC(=O)[C@H](C(C)C)NC(=O)[C@H](CC(C)C)NC(=O)[C@H](CCN)NC(=O)[C@@H](CC(C)C)NC(=O)[C@H](CCCN)NC(=O)[C@H](CCCNC(N)=O)NC(=O)[C@H](Cc3ccc(-c4ccccc4)cc3)NC(=O)[C@H](C(C)C)NC2=O)c1 [Compound 2789] ({CH2CO}-NYD[Phe(3-Me)]V[Bip][Cit][Orn][dL][Dab]LVQC[Dab][Aun]-OH; thioether N-14) | 0.0238 µM
CC(C)C[C@H]1NC(=O)[C@H](CCN)NC(=O)[C@H](C(C)C)NC(=O)[C@H](Cc2ccc(-c3ccccc3)cc2)NC(=O)[C@H](C(C)C)NC(=O)[C@H](Cc2c[nH]c3ccccc23)NC(=O)[C@H](CC(=O)O)NC(=O)[C@H](Cc2ccc(OCC(=O)O)cc2)NC(=O)[C@H](Cc2ccsc2)NC(=O)CSC[C@@H](C(=O)N[C@@H](CCN)C(=O)NCCCCCCCCCCC(=O)O)NC(=O)[C@H](C(C)O)NC(=O)[C@H](C(C)C)NC(=O)[C@H](CC2CCCCC2)NC(=O)[C@H](CCN)NC1=O (stereo partly drawn) [Compound 3282] ({CH2CO}-[3Thi]Y(Carboxymethyl)DWV[Bip]V[Dab][dL][Dab][Cha]V[Thr(3ξ)]C[Dab][Aun]-OH; thioether N-14) | 0.119 µM
CC(C)C[C@H]1NC(=O)[C@H](CCCN)NC(=O)[C@H](CCC(=O)O)NC(=O)[C@H](Cc2ccc(-c3ccccc3)cc2)NC(=O)[C@H](C(C)C)NC(=O)[C@H](Cc2c[nH]c3ccccc23)NC(=O)[C@H](CC(=O)O)NC(=O)[C@H](Cc2ccc(C(=O)O)cc2)NC(=O)[C@H](Cc2ccc(OCC(=O)O)cc2)NC(=O)CSC[C@@H](C(=O)N[C@H](CO)C(=O)NCCOCCOCC(=O)N[C@@H](CCCN)C(=O)NCCCCCCCCCCCC(=O)O)NC(=O)[C@H](CO)NC(=O)[C@H](C(C)C)NC(=O)[C@H](CC2CCCCC2)NC(=O)[C@H](CCN)NC1=O [Compound 3063] ({CH2CO}-Y(Carboxymethyl)[Phe(4-COOH)]DWV[Bip]E[Orn][dL][Dab][Cha]VSC[dS][AEEA][Orn][12Ado]-OH; thioether N-14) | 0.0134 µM

— US20260022142A1, “MACROCYCLIC IMMUNOMODULATORS” (Bristol-Myers Squibb Company, priority 2022, published 2026)
